Test results: the SangsterLogP compilation

logP | SMILES
2.37 | OCc1cccc2ccccc12
2.93 | CCCc1ccccc1O
2.28 | CC(=O)c1ccccc1Br
1.86 | O=[N+]([O-])c1cc(F)ccc1F
2.02 | O=[N+]([O-])c1cccc(F)c1
2.24 | Oc1cc2ccccc2cc1O
1.98 | OC1CCCc2ccccc21 (configuration not stated)
2.28 | O=Cc1ccccc1Cl
2.89 | OCC1c2ccccc2-c2ccccc21
1.9 | Oc1ccc2cc(O)ccc2c1
3.22 | Cc1cc2ccccc2o1
2.19 | Oc1cccc2c(O)cccc12
2.03 | O=[N+]([O-])c1cc(F)cc(F)c1
2.68 | CC(O)c1ccc2ccccc2c1 (configuration not stated)
2.26 | O=Cc1cccc(Cl)c1
2.9 | Oc1ccc2c(c1)CCCC2
2.43 | CC(=O)c1cccc(Cl)c1
2.58 | CC(=O)c1cccc(Br)c1

SMILES | logP
O=[N+]([O-])c1ccccc1F | 1.84
CC(=O)c1ccc(Br)cc1 | 2.57
O=C(CBr)c1ccccc1 | 2.19
O=[N+]([O-])c1ccc(F)cc1 | 1.89
